| Compound | melting point |
| --- | --- |
| CC1CC(C)CC2(C1)NC(=O)N(CC(=O)O)C2=O (configuration not stated) | 259 to 261 °C |
| C1CCC(C2CCNCC2)CC1 | 73 to 75 °C |
| NC(C(=O)O)(c1cc(F)cc(F)c1)C(F)(F)F (configuration not stated) | 121 to 123 °C |
| COC(=O)c1cc(C(=O)OC)[nH]n1 | 149 to 151 °C |
| CC1CCC(NC2CCC(O)CC2)CC1 (configuration not stated) | 143 to 145 °C |
| O=S(CCCl)c1cc(Cl)ccc1Cl (configuration not stated) | 68 to 70 °C |
| N#Cc1cccnc1-n1cncn1 | 201 to 203 °C |
| CNC(C(=O)O)c1cc(F)ccc1F (configuration not stated) | 239 to 241 °C |
| O=C(O)CSc1ccc(F)cc1F | 73 to 75 °C |
| CCOc1ccc(C(C)=O)cc1CN1CCOCC1 | 33 to 37 °C |
| CCNCC(=O)Nc1c(C)cccc1C | 45 to 47 °C |
| COc1cc(NC(=O)CCl)cc(OC)c1OC | 104 to 106 °C |
| COc1ccc(CCl)cc1C#N | 99 to 101 °C |
| O=C(O)c1occc1CSc1ccccc1 | 114 to 116 °C |
| O=C(O)Cn1c(=O)oc2ccccc21 | 178 to 180 °C |
| O=C(O)C1CCN(C(=O)c2ccoc2)CC1 | 103 to 105 °C |
| c1nnc(C2CCNCC2)[nH]1 | 208 to 210 °C |
| O=C(O)CN1C(=O)c2cc(Cl)c(Cl)cc2C1=O | 309 to 311 °C |
| COCCCn1cc(C(=O)c2cc(F)ccc2O)cc(C#N)c1=O | 126 to 128 °C |
| COc1cc(CNC(=O)CCl)cc(OC)c1OC | 106 to 108 °C |
| COCCNc1ccc(C(F)(F)F)cn1 | 77 to 79 °C |
| NC(=S)c1ccc(NC(=O)CC2CCCC2)cc1 | 195 to 197 °C |
| CC(C)Cc1nnc(N)s1 | 239 to 241 °C |
| CC(=O)Nc1sc2c(c1C(=O)O)CCCC2 | 210 to 212 °C |
| CCOC(=O)c1cc(C)sc1NC(=O)CCl | 104 to 106 °C |
| Cc1nn2cccnc2c1C(=O)O | 176 to 178 °C |
| N#Cc1ccc(OCC2CC2)nc1 | 53 to 55 °C |
| O=C(NC1CCN(Cc2ccccc2)CC1)c1cccc(F)c1 | 143 to 145 °C |

Second part, the compound after the results:

| melting point | Compound |
| --- | --- |
| 235 to 237 °C | Cc1oc2cc(O)ccc2c(=O)c1Oc1ccccc1 |
| 156 to 158 °C | Cn1cnc2cc(Br)ccc2c1=O |
| 174 to 176 °C | CC(Nc1nc2ccccc2s1)C(=O)NN (configuration not stated) |
| 132 to 134 °C | O=C(O)c1ccc(NC(=O)c2ccco2)cc1 |
| 133 to 135 °C | CN1CCN(C(=O)c2cc(N)ccn2)CC1 |
| 104 to 106 °C | CS(=O)(=O)c1cccc(NC(=O)CCl)c1 |
| 131 to 135 °C | O=C(Cc1ccc(Cl)cc1)c1ccccc1 |
| 243 to 245 °C | CN(C)S(=O)(=O)c1ccc(-c2csc(N)n2)cc1 |
| 206 to 208 °C | Cn1c(CC(=O)NN)nc2ccccc21 |
| 171 to 173 °C | Cc1ccc(-c2ncc(C(=O)O)s2)c(C)c1 |
| 41 to 43 °C | CC1(C)CNc2ccccc2S1 |
| 124 to 126 °C | NC(=O)c1cc(Oc2cccc(O)c2)ccn1 |
| 119 to 121 °C | COC(=O)C(N)Cc1c[nH]c2ccc(Br)cc12 (configuration not stated) |
| 123 to 125 °C | Clc1ccc2ccc(Cl)c(Cl)c2n1 |
| 285 to 287 °C | CCC(N)(C(=O)O)c1ccccc1 (configuration not stated) |
| 115 to 117 °C | CCOc1ccc(C(N)=S)cc1 |
| 248 to 250 °C | O=C1CCc2cc(C(=O)c3c(F)cccc3F)ccc2N1 |
| 138 to 140 °C | Nc1ccc(CC2CC(=O)NC2=O)cc1 (configuration not stated) |
| 153 to 155 °C | Cc1ccc(C(C)C)cc1OCC(=O)O |
| 138 to 140 °C | COc1ccc2c(c1)NC(=O)C(C)O2 (configuration not stated) |
| 97 to 101 °C | CN(C)CCCNC(=O)c1cccnc1Cl |
| 107 to 109 °C | CCOc1ccc(Br)cc1S(=O)(=O)NC |
| 105 to 107 °C | Cc1ccc(S(=O)(=O)C2(C(=O)O)CCC2)cc1 |
| 138 to 140 °C | CCOC(=O)c1cn2c(Br)ccc2cn1 |
| 98 to 100 °C | Cc1ccc(-n2c(C)nnc2S)cc1 |
| 187 to 189 °C | O=c1[nH]c(S)nn1-c1ccccc1 |
| 69 to 71 °C | NC1CCN(c2ccc(Cl)c(F)c2)C1=O (configuration not stated) |
| 116 to 118 °C | Cc1ccc(-c2n[nH]cc2Br)cc1C |
| 51 to 53 °C | Clc1nc(-c2ccccc2)ns1 |
